Results published in patent US20110118199A1, “USE OF CNS PENETRATING ANTICANCER COMPOUNDS FOR THE TREATMENT OF PROTOZOAL DISEASES” (priority 2006, published 2011).
Values after ≈ are worked out from the molar mass of the structure shown. Where two headings read alike, the source gives them in different places. Blank lines part the entries; values can stand above or below the compound they belong to.

Assays:
[1] = test system: Trypanosoma brucei rhodesiense (STIB 900 clone); experiment: Drug sensitivity assay (Alamar Blue, 72 h) against bloodstream form trypomastigotes in vitro; type: cell-based
Protocol: Bloodstream form trypomastigotes of the strains (a) and (c) are maintained in Minimal Essential Medium (MEM) with Earle's salts supplemented according to Baltz et al. (EMBO J. 4, 1273-1277, 1985) with 25 mM N-2-hydroxyethylpiperazine-N′-2-ethane-sulphonic acid (HEPES), 1 g/l additional glucose, 1% MEM non-essential amino acids (100×), 0.2 mM 2-mercaptoethanol, 2 mM sodium pyruvate, 0.1 mM hypoxanthine and 15% heat-inactivated horse serum.
All cultures and assays are conducted at 37° C. under an atmosphere of 5% CO2 in air.
Stock drug solutions are prepared in 100% dimethylsulphoxide (DMSO) (unless otherwise recommended by the supplier) at 10 mg/ml, and heated or sonicated if necessary to dissolve the sample. The stocks are kept at −20° C. For the assays, the compound is further diluted to the appropriate concentration using complete medium.
Assays are performed in 96-well microtiter plates, each well containing 100 μl of culture medium with 8×10^3 bloodstream forms with or without a serial drug dilution. The highest concentration of the test compounds is 90 μg/ml. Seven 3-fold drug dilutions are used, covering a range from 90 μg/ml to 0.123 μg/ml. Each drug is tested in duplicate. Active compounds are tested twice for confirmation. The final result is the mean of the four individual IC50 values. After 72 hrs of incubation, the plates are inspected under an inverted microscope to assure growth of the controls and sterile conditions.
Ten microliters of Alamar Blue (12.5 mg resazurin dissolved in 100 ml distilled water) are then added to each well and the plates are incubated for another 2 hours. The plates are read with a Spectramax Gemini XS microplate fluorometer (Molecular Devices Cooperation, Sunnyvale, Calif., USA) using an excitation wave length of 536 nm and an emission wave length of 588 nm. IC50 values are determined using the microplate reader software Softmax Pro (Molecular Devices Cooperation, Sunnyvale, Calif., USA).

[2] = test system: Trypanosoma brucei rhodesiense (STIB 900 clone); experiment: Sleeping sickness acute mouse model, T. b. rhodesiense STIB900; type: in vivo, mice (NMRI)
Protocol: Sleeping Sickness: Acute Model—Trypanosome b. rhodesiense STIB900 Parasite and Animal Strains Trypanosoma brucei rhodesiense STIB900 is used for this model. Female mice (NMRI), weighing 20-25 g, are maintained at 22° C. and 70% relative humidity.
(§1) Standard drugs as positive controls are Melarsoprol (Arsobal®, Specia, France) and Diminazene aceturate (Berenil®, Hoechst, Germany). Stock solutions of all test items were prepared in DMSO.

[3] = test system: Trypanosoma brucei brucei GVR 35; experiment: Sleeping sickness in vivo chronic CNS mouse model, T. b. brucei GVR 35; parameters: species or system mice (NMRI); settings: 40 mg/kg single i.p. dose on day +21
Protocol: Sleeping Sickness: In Vivo Chronic CNS Model—Trypanosoma b. brucei GVR 35 Parasite and Animal Strains Trypanosoma brucei brucei GVR 35 which leads to a CNS infection by day 21 post-infection (Jennings and Gray, Contrib. Microbiol. Immunol. 7, 147-54, 1983) is used for this model.
Female mice (NMRI), weighing 20-25 g, are maintained at 22° C. and 70% relative humidity.
Infection: The bloodstream forms are from a stock of cryopreserved stabilates containing 10% glycerol. The stabilate is suspended in PSG (phosphate-saline-glucose) 6:4 (Lanham & Godfrey, Exp. Parasitol. 28, 521-534, 1970) to obtain a trypanosome concentration of 8×10^4/ml. Each mouse is intraperitoneally injected with 0.25 ml inoculum (equivalent to 2×10^4 trypanosomes) on day 0.
Experimental groups and control groups each consist of 5 mice.
Evaluation endpoint: On day +28 and then twice a week until day +50 parasitaemia of all animals is checked by tail blood examination and recorded based on a subjective scale ranging from (+)=1 trypanosome/20 fields to +++=>100 trypanosomes/field with a 20× objective. After day +50 the mice are checked only once per week until day +180. For mice dying before day +180 the day of death is recorded. At day +180, surviving and aparasitaemic mice are considered cured and then euthanized. […]

[4] = test system: Trypanosoma brucei brucei STIB795; experiment: Sleeping sickness acute mouse model, T. b. brucei STIB795; type: in vivo, mice (NMRI); settings: ip injection, four consecutive days, daily doses of 50 mg/kg; T. b. brucei STIB795 infected mice
Protocol: Trypanosoma brucei brucei STIB795 is used for this model. Female mice (NMRI), weighing 20-25 g, are maintained at 22° C. and 70% relative humidity.
as §1

[5] = patients treated for African trypanomiasis; cited from earlier work
[6] = T. b. rhodesiense STIB 900, in vitro, 72 h incubation, Alamar Blue, read-out: IC50
[7] = 4 × 20 mg/kg p.o., determined on day 18

SMILES: CN(C)/N=N/c1[nH]cnc1C(N)=O [Dacarbazine]
- IC50 [1, 6]: 19.7 µg/mL (≈ 108 µM)
- MSD (mean survival days) [2, 7]: 16 days
- MSD (mean survival days) ([2]; 4 × 50 mg/kg p.o., determined on day 18): >18 days

SMILES: N=C(N)c1ccc(/N=N/Nc2ccc(C(=N)N)cc2)cc1 [Diminazene diaceturate]
- course of parasitaemia and death (negative control) [3]: all mice clear parasitaemia but relapse before day +40 and die between day +50 and day +60

SMILES: O=NN(CCCl)C(=O)NCCCl [Carmustine]
- IC50 [1, 6]: 2.18 µg/mL (≈ 10.2 µM)

- IC50 [1, 6]: 0.015 µg/mL (≈ 0.0276 µM)
SMILES: COc1cccc2c1C(=O)c1c(O)c3c(c(O)c1C2=O)C[C@@](O)(C(=O)CO)C[C@@H]3O[C@H]1C[C@H](N)[C@H](O)[C@H](C)O1 [Doxorubicin]

SMILES: Cn1nnc2c(C(N)=O)ncn2c1=O [Temozolomide]
- IC50 [1, 6]: 27.7 µg/mL (≈ 143 µM)
- cure rate [4]: 100%
- MSD (mean survival days) [2, 7]: >18 days
- Cured/Infected ([2]; 4 × 50 mg/kg i.p.): 3/4
- MSD (mean survival days) ([2]; 4 × 50 mg/kg i.p.): >51.5 days
- Cured/Infected ([2]; 4 × 50 mg/kg p.o.): 4/4
- MSD (mean survival days) ([2]; 4 × 50 mg/kg p.o.): >60 days

SMILES: Nc1nc(N)nc(Nc2ccc([As]3SCC(CO)S3)cc2)n1 (stereo not drawn) [Melarsoprol]
- often fatal reactive encephalopathy, share of treated patients [5]: up to 10%

- IC50 [1, 6]: 0.006 µg/mL (≈ 0.00743 µM)
SMILES: CC(=O)O[C@@]12CO[C@@H]1C[C@H](O)[C@@]1(C)C(=O)[C@H](O)C3=C(C)[C@@H](OC(=O)[C@H](O)[C@@H](NC(=O)OC(C)(C)C)c4ccccc4)C[C@@](O)([C@@H](OC(=O)c4ccccc4)[C@H]21)C3(C)C [Docetaxel]

- IC50 [1, 6]: 0.01 µg/mL (≈ 0.0117 µM)
SMILES: CC(=O)O[C@H]1C(=O)[C@@]2(C)[C@H]([C@H](OC(=O)c3ccccc3)[C@]3(O)C[C@H](OC(=O)[C@H](O)[C@@H](NC(=O)c4ccccc4)c4ccccc4)C(C)=C1C3(C)C)[C@]1(OC(C)=O)CO[C@@H]1C[C@@H]2O [Paclitaxel]

SMILES: C[C@]12CC[C@@H]3c4ccc(OC(=O)N(CCCl)CCCl)cc4CC[C@H]3[C@@H]1CC[C@@H]2O [Estramustine]
- IC50 ([1]; 72 h): 41.5 µg/mL (≈ 94.2 µM)

- IC50 [1, 6]: 0.13 µg/mL (≈ 0.16 µM)
SMILES: CC[C@]1(O)C[C@@H]2CN(CCc3c([nH]c4ccccc34)[C@@](C(=O)OC)(c3cc4c(cc3OC)N(C)[C@H]3[C@@](O)(C(=O)OC)[C@H](OC(C)=O)[C@]5(CC)C=CCN6CC[C@]43[C@@H]65)C2)C1 [Vinblastine]
